Source: patent publication US9605005B2, “Alkynyl alcohols and methods of use” (Genentech, Inc., priority 2013, dated 2017)

Molecular target: nuclear factor-kappa B (NF-kB)-inducing kinase (NIK) (Homo sapiens (Human), UniProt Q99558)
Test: NIK enzyme inhibition assay (Transcreener ADP, NIK ADP-FP)
Format: biochemical
Details: purified NIK 0.5 nM, 10 μM ATP, fluorescence polarization; read-out: NIK ADP-FP (Ki μM)

nuclear factor-kappa B (NF-kB)-inducing kinase (NIK), sequence (Q99558 whole entry): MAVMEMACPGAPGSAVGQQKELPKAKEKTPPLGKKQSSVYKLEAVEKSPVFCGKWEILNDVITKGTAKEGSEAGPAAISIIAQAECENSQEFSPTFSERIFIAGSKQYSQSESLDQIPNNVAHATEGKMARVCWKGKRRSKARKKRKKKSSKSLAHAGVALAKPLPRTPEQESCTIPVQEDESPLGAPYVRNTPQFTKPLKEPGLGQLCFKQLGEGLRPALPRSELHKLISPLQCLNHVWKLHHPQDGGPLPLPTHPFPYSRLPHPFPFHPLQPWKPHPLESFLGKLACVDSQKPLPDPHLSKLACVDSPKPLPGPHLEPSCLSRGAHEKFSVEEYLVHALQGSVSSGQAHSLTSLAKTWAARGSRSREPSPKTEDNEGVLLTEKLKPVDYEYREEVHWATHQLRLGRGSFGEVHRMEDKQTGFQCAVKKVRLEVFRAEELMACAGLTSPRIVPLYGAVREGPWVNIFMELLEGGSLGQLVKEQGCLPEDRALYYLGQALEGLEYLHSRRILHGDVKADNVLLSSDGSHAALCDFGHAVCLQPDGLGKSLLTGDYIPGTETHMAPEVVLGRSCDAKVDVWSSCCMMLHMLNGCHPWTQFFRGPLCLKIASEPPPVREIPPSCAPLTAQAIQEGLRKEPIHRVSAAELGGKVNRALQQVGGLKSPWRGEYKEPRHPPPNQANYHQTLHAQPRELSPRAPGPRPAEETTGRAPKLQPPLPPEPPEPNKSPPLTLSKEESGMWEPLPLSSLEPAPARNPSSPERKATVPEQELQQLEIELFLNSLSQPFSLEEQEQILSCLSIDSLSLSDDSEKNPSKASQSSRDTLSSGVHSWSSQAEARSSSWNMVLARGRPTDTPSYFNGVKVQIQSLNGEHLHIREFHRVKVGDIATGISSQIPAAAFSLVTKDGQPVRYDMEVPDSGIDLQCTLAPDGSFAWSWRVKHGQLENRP

Ki	Compound
0.00292 µM	CN1CC[C@@](O)(C#Cc2ccnc(-n3nc(C(N)=O)c4c3CC(C)(C)CC4)c2)C1=O [Compound 4, 1-[4-[2-[(3R)-3-hydroxy-1-methyl-2-oxo-pyrrolidin-3-yl]ethynyl]-2-pyridyl]-6,6-dimethyl-5,7-dihydro-4H-inda-zole-3-carboxamide]
0.0139 µM	CN1CC[C@@](O)(C#Cc2ccnc(-n3nc(C(N)=O)c4c3C[C@]3(C)C[C@@H]3C4)c2)C1=O [Compound 5, (4aR,5aS)-1-[4-[2-[(3R)-3-hydroxy-1-methyl-2-oxo-pyrroli-din-3-yl]ethynyl]-2-pyri-dyl]-5a-methyl-4,4a,5,6-tetrahydrocyclopropa[f]inda-zole-3-carboxamide]
0.0455 µM	CN1CC[C@@](O)(C#Cc2ccnc(-n3nc(C(N)=O)c4c3CC(C)(C)[C@@H](OCc3ccccc3)C4)c2)C1=O [Compound 7, (5S)-5-benzyloxy-1-[4-[2-[(3R)-3-hydroxy-1-methyl-2-oxo-pyrrolidin-3-yl]ethynyl]-2-pyridyl]-6,6-dimethyl-5,7-dihydro-4H-indazole-3-carboxamide]
0.0724 µM	CN1CC[C@@](O)(C#Cc2ccnc(-n3nc(C(N)=O)c4c3CC(C)(C)[C@H](OCc3ccccc3)C4)c2)C1=O [Compound 8, (5R)-5-benzyloxy-1-[4-[2-[(3R)-3-hydroxy-1-methyl-2-oxo-pyrrolidin-3-yl]ethynyl]-2-pyridyl]-6,6-dimethyl-5,7-dihydro-4H-indazole-3-carboxamide]
0.0332 µM	CN1CC[C@@](O)(C#Cc2ccnc(-n3nc(C(N)=O)c4c3CC(C)(C)[C@H](O)C4)c2)C1=O [Compound 9, (5R)-5-hydroxy-1-[4-[2-[(3R)-3-hydroxy-1-methyl-2-oxo-pyrrolidin-3-yl]ethynyl]-2-pyridyl]-6,6-dimethyl-5,7-dihydro-4H-indazole-3-carboxamide]
0.0134 µM	CN1CC[C@@](O)(C#Cc2ccnc(-n3nc(C(N)=O)c4c3CC(C)(C)[C@@H](O)C4)c2)C1=O [Compound 11, (5S)-5-hydroxy-1-[4-[2-[(3R)-3-hydroxy-1-methyl-2-oxo-pyrrolidin-3-yl]ethynyl]-2-pyridyl]-6,6-dimethyl-5,7-dihydro-4H-indazole-3-carboxamide]
0.382 µM	CN1CC[C@@](O)(C#Cc2ccnc(-n3nc(C(N)=O)c4c3CCC[C@H]4NC(=O)C3CC3)c2)C1=O [Compound 15, (4R)-4-(cyclopropanecarbo-nylamino)-1-[4-[2-[(3R)-3-hydroxy-1-methyl-2-oxo-pyrrolidin-3-yl]ethynyl]-2-pyridyl]-4,5,6,7-tetrahydroinda-zole-3-carboxamide]
0.146 µM	CN1CC[C@@](O)(C#Cc2ccnc(-n3nc(C(N)=O)c4c3CCC[C@@H]4NC(=O)C3CC3)c2)C1=O [Compound 17, (4S)-4-(cyclopropanecarbo-nylamino)-1-[4-[2-[(3R)-3-hydroxy-1-methyl-2-oxo-pyrrolidin-3-yl]ethynyl]-2-pyridyl]-4,5,6,7-tetrahydroin-dazole-3-carboxamide]
0.0102 µM	CC(=O)N1CCc2c(c(C(N)=O)nn2-c2cccc(C#C[C@]3(O)CCN(C)C3=O)c2)C1 [Compound 19, 5-acetyl-1-[3-[2-[(3R)-3-hy-droxy-1-methyl-2-oxo-pyrroli-din-3-yl]ethynyl]phenyl]-6,7-dihydro-4H-pyrazolo[4,3-c]pyridine-3-carboxamide]
0.00489 µM	CN1CC[C@@](O)(C#Cc2cccc(-n3nc(C(N)=O)c4c3CCN(C(=O)C3CC3)C4)c2)C1=O [Compound 20, 5-(cyclopropanecarbonyl)-1-[3-[2-[(3R)-3-hydroxy-1-methyl-2-oxo-pyrrolidin-3-yl]ethynyl]phenyl]-6,7-dihydro-4H-pyrazolo[4,3-c]pyri-dine-3-carboxamide]
0.233 µM	CN1CC[C@@](O)(C#Cc2cccc(-n3nc(C(N)=O)c4c3CCNC4)c2)C1=O [Compound 21, 1-[3-[2-[(3R)-3-hydroxy-1-methyl-2-oxo-pyrrolidin-3-yl]ethynyl]phenyl]-4,5,6,7-tetra-hydropyrazolo[4,3-c]pyri-dine-3-carboxamide]
0.00975 µM	COc1cccc2c(C(N)=O)nn(-c3cccc(C#C[C@]4(O)CCN(C)C4=O)c3)c12 [Compound 23, 1-[3-[2-[(3R)-3-hydroxy-1-methyl-2-oxo-pyrrolidin-3-yl]ethynyl]phenyl]-7-methoxy-indazole-3-carboxamide]
0.00762 µM	CN1CC[C@@](O)(C#Cc2cccc(-n3nc(C(N)=O)c4c3CCCC4(F)F)c2)C1=O [Compound 24, 4,4-difluoro-1-[3-[2-[(3R)-3-hydroxy-1-methyl-2-oxo-pyrrolidin-3-yl]ethynyl]phe-nyl]-6,7-dihydro-5H-indazole-3-carboxamide]
0.0352 µM	C[C@@](O)(C#Cc1cccc(-n2nc(C(N)=O)c3ccccc32)c1)c1ncccn1 [Compound 28, 1-[3-[(3R)-3-hydroxy-3-pyri-midin-2-yl-but-1-ynyl]phe-nyl]indazole-3-carboxamide]
0.0367 µM	Cc1nc([C@](C)(O)C#Cc2cccc(-n3nc(C(N)=O)c4ccccc43)c2)no1 [Compound 29, 1-[3-[(3R)-3-hydroxy-3-(5-methyl-1,2,4-oxadiazol-3-yl)but-1-ynyl]phenyl]indazole-3-carboxamide]
1.04 µM	CN1CC[C@@](O)(C#Cc2cccc(-n3nc(C(N)=O)c4c3CCC[C@H]4NC(=O)C3CC3)c2)C1=O [Compound 32, (4R)-4-(cyclopropanecarbonyl-amino)-1-[3-[2-[(3R)-3-hydroxy-1-methyl-2-oxo-pyrroli-din-3-yl]ethynyl]phenyl]-4,5,6,7-tetrahydroindazole-3-carboxamide]
0.259 µM	CN1CC[C@@](O)(C#Cc2cccc(-n3nc(C(N)=O)c4c3CCN(C3COC3)C4)c2)C1=O [Compound 33, 1-[3-[2-[(3R)-3-hydroxy-1-methyl-2-oxo-pyrrolidin-3-yl]ethynyl]phenyl]-5-(oxetan-3-yl)-6,7-dihydro-4H-pyra-zolo[4,3-c]pyridine-3-carbox-amide]
0.606 µM	CN1CC[C@@](O)(C#Cc2cccc(-n3nc(C(N)=O)c4c3CCC[C@H]4n3cccn3)c2)C1=O [Compound 34, (4R)-1-[3-[2-[(3R)-3-hydroxy-1-methyl-2-oxo-pyrrolidin-3-yl]ethynyl]phenyl]-4-pyrazol-1-yl-4,5,6,7-tetrahydro-indazole-3-carboxamide]
0.193 µM	CN1CC[C@@](O)(C#Cc2cccc(-n3nc(C(N)=O)c4c3CCC[C@@H]4NC(=O)C3CC3)c2)C1=O [Compound 37, (4S)-4-(cyclopropanecarbo-nylamino)-1-[3-[2-[(3R)-3-hydroxy-1-methyl-2-oxo-pyrrolidin-3-yl]ethynyl]phen-yl]-4,5,6,7-tetrahydroindazole-3-carboxamide]
0.0101 µM	CN1CC[C@@](O)(C#Cc2cccc(-n3nc(C(N)=O)c4c3CCC[C@@H]4n3cccn3)c2)C1=O [Compound 38, (4S)-1-[3-[2-[(3R)-3-hydroxy-1-methyl-2-oxo-pyrrolidin-3-yl]ethynyl]phenyl]-4-pyrazol-1-yl-4,5,6,7-tetrahydro-indazole-3-carboxamide]
0.071 µM	CN1CC[C@@](O)(C#Cc2cccc(-n3nc(C(N)=O)c4c3CCN(CC(C)(C)O)C4)c2)C1=O [Compound 40, 1-[3-[2-[(3R)-3-hydroxy-1-methyl-2-oxo-pyrrolidin-3-yl]ethynyl]phenyl]-5-(2-hy-droxy-2-methyl-propyl)-6,7-dihydro-4H-pyrazolo[4,3-c]pyridine-3-carboxamide]
0.00233 µM	C[C@H](O)c1ccc2c(c1)c(C(N)=O)nn2-c1cccc(C#C[C@]2(O)CCN(C)C2=O)c1 [Compound 45, 5-[(1S)-1-hydroxyethyl]-1-[3-[2-[(3R)-3-hydroxy-1-meth-yl-2-oxo-pyrrolidin-3-yl]ethynyl]phenyl]indazole-3-carboxamide]
0.0226 µM	CN1CC[C@@](O)(C#Cc2cccc(-n3nc(C(N)=O)c4c3C[C@@]3(C)C(C4)C3(F)F)c2)C1=O (stereo partly drawn) [Compound 47, (5aS)-5,5-difluoro-1-[3-[2-[(3R)-3-hydroxy-1-methyl-2-oxo-pyrrolidin-3-yl]ethyn-yl]phenyl]-5a-methyl-4a,6-dihydro-4H-cyclopropa[f] indazole-3-carboxamide]
0.0647 µM	CN1CC[C@@](O)(C#Cc2cccc(-n3nc(C(N)=O)c4cc(CN5CCCC5)ccc43)c2)C1=O [Compound 48, 1-[3-[2-[(3R)-3-hydroxy-1-methyl-2-oxo-pyrrolidin-3-yl]ethynyl]phenyl]-5-(pyrro-lidine-1-ylmethyl)indazole-3-carboxamide]
0.17 µM	CN1CC[C@@](O)(C#Cc2cccc(-n3nc(C(N)=O)c4c3C[C@]3(C)C(C4)C3(F)F)c2)C1=O (stereo partly drawn) [Compound 50, (5aR)-5,5-difluoro-1-[3-[2-[(3R)-3-hydroxy-1-methyl-2-oxo-pyrrolidin-3-yl]ethyn-yl]phenyl]-5a-methyl-4a,6-dihydro-4H-cyclopropa[f]inda-zole-3-carboxamide]
0.0187 µM	CN1CC[C@@](O)(C#Cc2ccnc(-n3nc(C(N)=O)c4c3C3CC(C4)C3)c2)C1=O [Compound 58, (R)-1-(4-((3-hydroxy-1-meth-yl-2-oxopyrrolidin-3-yl)eth-ynyl)pyridin-2-yl)-4,5,6,7-tetrahydro-1H-5,7-methano-indazole-3-carboxamide]
0.0072 µM	CN1CC[C@@](O)(C#Cc2ccnc(-n3nc(C(N)=O)c4c3CC3CC4C3)c2)C1=O [Compound 59, (R)-1-(4-((3-hydroxy-1-meth-yl-2-oxopyrrolidin-3-yl)eth-ynyl)pyridin-2-yl)-4,5,6,7-tetrahydro-1H-4,6-methano-indazole-3-carboxamide]
0.00446 µM	CN1CC[C@@](O)(C#Cc2ccnc(-n3nc(C(N)=O)c4c3C[C@H](O)CC4)c2)C1=O [Compound 61, (6R)-6-hydroxy-1-[4-[2-[(3R)-3-hydroxy-1-methyl-2-oxo-pyrrolidin-3-yl]ethynyl]-2-pyridyl]-4,5,6,7-tetrahydro-indazole-3-carboxamide]
0.00547 µM	CN1CC[C@@](O)(C#Cc2ccnc(-n3nc(C(N)=O)c4c3C[C@@H](O)CC4)c2)C1=O [Compound 62, (6S)-6-hydroxy-1-[4-[2-[(3R)-3-hydroxy-1-methyl-2-oxo-pyrrolidin-3-yl]ethynyl]-2-pyridyl]-4,5,6,7-tetrahydro-indazole-3-carboxamide]
